Results as given in patent US10117948B2, “Selective arylation of dichalcogenides in biomolecules” (priority 2015, dated 2018).
In brackets after ≈: the same amount, converted by molar mass.

How the values were obtained:
[1] = cited from earlier work
[2] = test system: BT-474 cells (mammary gland cancer cells); test: Screening of genistein antibody-drug conjugate against BT-474 cells; assay type: cell-based; conditions: tested as ADC of genistein
Source text: An antibody-drug conjugate (ADC) of genistein was screened against BT-474 cells (mammary gland cancer cells).

[3] = test system: gram-positive bacteria and gram-negative bacteria; conditions: due to the outer cell membrane; cited from earlier work
[4] = test system: K. pneumoniea KPC-1 (MMX 6902, ATCC BAA-1705); test: MIC screening, vancomycin vs vancomycin/peptide conjugates; assay type: cell-based
Source text: (§1) Vancomycin was conjugated to a variety of antibacterial peptides and screened against (a) resistant strains of gram-positive bacteria and b) gram-negative bacteria. See FIG. 20, FIG. 21, FIG. 22, and Table 3.

[5] = test system: E. faecalis VRE (Van B) (MMX 202, ATCC 51299); test: as above; assay type: cell-based; conditions: Enterococcus faecalis
Source text: as §1

[6] = test system: A. baumannii Wild-type (MMX 1630, ATCC 19606); test: as above; assay type: cell-based; conditions: Acinetobacter baumannii, ATCC19606
Source text: as §1

[7] = test system: E. faecalis VSE: QC (MMX 101, ATCC 29212); test: as above; assay type: cell-based; conditions: Enterococcus faecalis, ATCC29212
Source text: as §1

[8] = test system: E. faecalis VRE (Van A) (MMX 486); test: as above; assay type: cell-based; conditions: Enterococcus faecalis
Source text: as §1

[9] = test system: K. pneumoniea PSSP (MMX 1195, ATCC 49619); test: as above; assay type: cell-based
Source text: as §1

| SMILES | pKa [1] | toxicity to cells [2] | activity against gram-negative bacteria [3] | MIC [4] | MIC [5] | MIC [6] | MIC [7] | MIC [8] | MIC [9] |
| --- | --- | --- | --- | --- | --- | --- | --- | --- | --- |
| N[C@@H](C[SeH])C(=O)O [selenocysteine] | 5.47 | not toxic to cells |  |  |  |  |  |  |  |
| N[C@@H](CS)C(=O)O [cysteine] | 8.14 |  |  |  |  |  |  |  |  |
| CN[C@H](CC(C)C)C(=O)N[C@H]1C(=O)N[C@@H](CC(N)=O)C(=O)N[C@H]2C(=O)N[C@H]3C(=O)N[C@H](C(=O)N[C@H](C(=O)O)c4cc(O)cc(O)c4-c4cc3ccc4O)[C@H](O)c3ccc(c(Cl)c3)Oc3cc2cc(c3O[C@@H]2O[C@H](CO)[C@@H](O)[C@H](O)[C@H]2O[C@H]2C[C@](C)(N)[C@H](O)[C@H](C)O2)Oc2ccc(cc2Cl)[C@H]1O [vancomycin] |  |  | not active | > 64 µg/mL | 16 µg/mL (≈ 11 µM) | > 64 µg/mL | 4 µg/mL (≈ 2.76 µM) | > 64 µg/mL | 0.25 µg/mL (≈ 0.173 µM) |
